Paper PMC6222997, “Cloning, purification, and characterization of an organic solvent-tolerant chitinase, MtCh509, from Microbulbifer thermotolerans DAU221” (Biotechnology for Biofuels, 2018)

Target: T1, MtCh509 (Microbulbifer thermotolerans, UniProt A0A143HNF3)
T1 construct: gene A3224_11035; full-length precursor 509 aa; cloned without signal peptide, N-terminal His6 (pCold I), E. coli BL21(DE3); ~60 kDa; GH18 catalytic domain plus ChtBD3
Assay: TLC of hydrolysis products
Assay type: biochemical
Conditions: 50 mM citrate buffer pH 5.0, 55 °C; 0.3 μg enzyme

T1 sequence (A0A143HNF3 entry or part of it): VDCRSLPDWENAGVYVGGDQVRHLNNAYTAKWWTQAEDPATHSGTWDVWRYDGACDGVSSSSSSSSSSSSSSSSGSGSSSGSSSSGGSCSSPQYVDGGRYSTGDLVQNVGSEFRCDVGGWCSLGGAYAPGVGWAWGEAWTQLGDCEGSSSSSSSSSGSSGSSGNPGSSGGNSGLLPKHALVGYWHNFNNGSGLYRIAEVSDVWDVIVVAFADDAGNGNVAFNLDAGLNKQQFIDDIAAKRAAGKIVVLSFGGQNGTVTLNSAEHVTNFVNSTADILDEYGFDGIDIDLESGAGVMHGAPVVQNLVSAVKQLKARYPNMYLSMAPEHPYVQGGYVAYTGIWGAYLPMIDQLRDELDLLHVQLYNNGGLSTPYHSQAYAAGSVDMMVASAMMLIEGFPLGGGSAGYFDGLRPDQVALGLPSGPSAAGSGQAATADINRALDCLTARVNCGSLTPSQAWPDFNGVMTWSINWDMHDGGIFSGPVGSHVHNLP

In the case of `CC(=O)N[C@H]1[C@H](O[C@H]2[C@H](O)[C@@H](NC(C)=O)[C@H](O[C@H]3[C@H](O)[C@@H](NC(C)=O)C(O)O[C@@H]3CO)O[C@@H]2CO)O[C@H](CO)[C@@H](O[C@@H]2O[C@H](CO)[C@@H](O[C@@H]3O[C@H](CO)[C@@H](O[C@@H]4O[C@H](CO)[C@@H](O)[C@H](O)[C@H]4NC(C)=O)[C@H](O)[C@H]3NC(C)=O)[C@H](O)[C@H]2NC(C)=O)[C@@H]1O` (stereo partly shown) [NAG6], the “TLC of hydrolysis products” value is reported as “NAG6 (Fig. 5E) was finally degraded to NAG3 and NAG2”.
